Assay results as given in the supplement of paper PMC10627819.

Tests used:
S. aureus DSM 20231 = test: fitness (endpoint OD595 vs no drug) (fraction); higher = more growth
How it was run: (§1)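 Bacterial growth was followed in 384-well plates seeded at OD595 0.01, with 30 µl per well, or 55 µl for S. pneumoniae, in TSB, LB Lennox or CY at 37 °C. OD595 was read every 30 min for 14 h, and each reading had the first reading subtracted as background. Fitness is the background-corrected optical density at entry into stationary phase divided by the robust mean of the no-drug control wells. This ratio is capped at 1.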

S. pneumoniae D39V = test: as above
How it was run: as §1

CC(=O)Oc1ccccc1C(=O)O [Acetylsalicylic acid] + COc1cccc2c1C(=O)c1c(O)c3c(c(O)c1C2=O)C[C@@](O)(C(=O)CO)C[C@@H]3O[C@H]1C[C@H](N)[C@H](O)[C@H](C)O1 [Doxorubicin]
fitness
Settings	first compound 250 µg/mL	first compound 500 µg/mL	first compound 1000 µg/mL
S. aureus DSM 20231, partner 0.625 µg/mL	0.835	0.759	0.607
S. aureus DSM 20231, partner 1.25 µg/mL	0.798	0.725	–
S. aureus DSM 20231, partner 2.5 µg/mL	0.783	0.71	0.586
S. pneumoniae D39V, partner 0.25 µg/mL	0.94	0.893	0.724
S. pneumoniae D39V, partner 0.5 µg/mL	0.945	0.904	0.751
S. pneumoniae D39V, partner 1 µg/mL	0.889	0.882	0.763

CN(C)[C@@H]1C(O)=C(C(N)=O)C(=O)[C@@]2(O)C(O)=C3C(=O)c4c(O)ccc(Cl)c4[C@@](C)(O)[C@H]3C[C@@H]12 [Chlortetracycline] + CCCCCCCCCC(=O)N[C@@H]1[C@H]([C@@H]([C@H](O[C@H]1OC2=C3C=C4C=C2OC5=C(C=C(C=C5)[C@H]([C@H]6C(=O)N[C@@H](C7=C(C(=CC(=C7)O)OC8[C@H]([C@H]([C@@H]([C@H](O8)CO)O)O)O)C9=C(C=CC(=C9)[C@H](C(=O)N6)NC(=O)[C@@H]4NC(=O)[C@@H]1C2=CC(=CC(=C2)OC2=C(C=CC(=C2)[C@H](C(=O)N[C@H](CC2=CC(=C(O3)C=C2)Cl)C(=O)N1)N)O)O)O)C(=O)O)O[C@H]1[C@@H]([C@H]([C@@H]([C@H](O1)CO)O)O)NC(=O)C)Cl)CO)O)O [Teicoplanin]
S. aureus DSM 20231, first compound 0.006 µg/mL, one replicate, main component drawn
Settings	fitness
partner 0.1562 µg/mL	0.707
partner 0.3125 µg/mL	0.905
partner 0.625 µg/mL	0.997

fitness, S. aureus DSM 20231, main component drawn
Settings	partner 0.1562 µg/mL	partner 0.3125 µg/mL	partner 0.625 µg/mL
first compound 0.012 µg/mL	0.656	–	0.756
first compound 0.048 µg/mL	0.0926	0.0866	0.0794

CC(=O)Oc1ccccc1C(=O)O [Acetylsalicylic acid] + Cc1onc(-c2ccccc2)c1C(=O)N[C@@H]1C(=O)N2[C@@H]1SC(C)(C)[C@@H]2C(=O)O [Oxacillin]
fitness
Settings	first compound 250 µg/mL	first compound 500 µg/mL	first compound 1000 µg/mL
S. aureus DSM 20231, partner 0.0156 µg/mL	0.763	0.656	0.561
S. aureus DSM 20231, partner 0.0312 µg/mL	0.583	0.548	0.519
S. aureus DSM 20231, partner 0.0625 µg/mL	0.494	0.508	0.393
S. pneumoniae D39V, partner 0.005 µg/mL	0.987	0.959	0.921
S. pneumoniae D39V, partner 0.01 µg/mL	0.969	0.984	–
S. pneumoniae D39V, partner 0.02 µg/mL	0.886	0.91	–
S. pneumoniae D39V, partner 0.04 µg/mL	0.501	0.643	–

CN(C)[C@@H]1C(O)=C(C(N)=O)C(=O)[C@@]2(O)C(O)=C3C(=O)c4c(O)ccc(Cl)c4[C@@](C)(O)[C@H]3C[C@@H]12 [Chlortetracycline] + CN[C@H](CC(C)C)C(=O)N[C@H]1C(=O)N[C@@H](CC(N)=O)C(=O)N[C@H]2C(=O)N[C@H]3C(=O)N[C@H](C(=O)N[C@H](C(=O)O)c4cc(O)cc(O)c4-c4cc3ccc4O)[C@H](O)c3ccc(c(Cl)c3)Oc3cc2cc(c3O[C@@H]2O[C@H](CO)[C@@H](O)[C@H](O)[C@H]2O[C@H]2C[C@](C)(N)[C@H](O)[C@H](C)O2)Oc2ccc(cc2Cl)[C@H]1O [Vancomycin]
S. aureus DSM 20231, first compound 0.006 µg/mL, one replicate
Settings	fitness
partner 0.1875 µg/mL	0.806
partner 0.375 µg/mL	0.776
partner 0.75 µg/mL	0.79

Settings	fitness
S. aureus DSM 20231, first compound 0.012 µg/mL, partner 0.1875 µg/mL	0.541
S. aureus DSM 20231, first compound 0.012 µg/mL, partner 0.375 µg/mL	0.499
S. aureus DSM 20231, first compound 0.012 µg/mL, partner 0.75 µg/mL	0.548
S. aureus DSM 20231, first compound 0.024 µg/mL, partner 0.375 µg/mL	0.28
S. aureus DSM 20231, first compound 0.048 µg/mL, partner 0.1875 µg/mL	0.103
S. aureus DSM 20231, first compound 0.048 µg/mL, partner 0.375 µg/mL	0.0854
S. aureus DSM 20231, first compound 0.048 µg/mL, partner 0.75 µg/mL	0.0806
S. pneumoniae D39V, first compound 0.012 µg/mL, partner 0.03125 µg/mL	0.883
S. pneumoniae D39V, first compound 0.012 µg/mL, partner 0.0625 µg/mL	0.903
S. pneumoniae D39V, first compound 0.012 µg/mL, partner 0.125 µg/mL	0.706
S. pneumoniae D39V, first compound 0.024 µg/mL, partner 0.03125 µg/mL	0.832
S. pneumoniae D39V, first compound 0.024 µg/mL, partner 0.0625 µg/mL	0.829
S. pneumoniae D39V, first compound 0.048 µg/mL, partner 0.03125 µg/mL	0.734
S. pneumoniae D39V, first compound 0.048 µg/mL, partner 0.0625 µg/mL	0.688
S. pneumoniae D39V, first compound 0.375 µg/mL, partner 0.125 µg/mL	0.0536
S. pneumoniae D39V, first compound 0.375 µg/mL, partner 0.25 µg/mL	0.0553
S. pneumoniae D39V, first compound 0.375 µg/mL, partner 0.5 µg/mL	0.0628
S. pneumoniae D39V, first compound 0.75 µg/mL, partner 0.125 µg/mL	0.0485
S. pneumoniae D39V, first compound 0.75 µg/mL, partner 0.25 µg/mL	0.0618
S. pneumoniae D39V, first compound 0.75 µg/mL, partner 0.5 µg/mL	0.0842
S. pneumoniae D39V, first compound 1.5 µg/mL, partner 0.125 µg/mL	0.0391
S. pneumoniae D39V, first compound 1.5 µg/mL, partner 0.25 µg/mL	0.0305
S. pneumoniae D39V, first compound 1.5 µg/mL, partner 0.5 µg/mL	0.0442

CC(=O)Oc1ccccc1C(=O)O [Acetylsalicylic acid] + CO/N=C(\C(=O)N[C@@H]1C(=O)N2C(C(=O)[O-])=C(C[N+]3(C)CCCC3)CS[C@H]12)c1csc(N)n1 [Cefepime]
fitness
Settings	first compound 250 µg/mL	first compound 500 µg/mL	first compound 1000 µg/mL
S. aureus DSM 20231, partner 0.125 µg/mL	0.856	0.712	0.624
S. aureus DSM 20231, partner 0.25 µg/mL	0.83	0.683	–
S. aureus DSM 20231, partner 0.5 µg/mL	0.78	0.666	0.612
S. pneumoniae D39V, partner 0.007 µg/mL	0.988	≥ 1	0.927
S. pneumoniae D39V, partner 0.0078 µg/mL	0.992	≥ 1	0.915
S. pneumoniae D39V, partner 0.014 µg/mL	0.99	0.995	0.969
S. pneumoniae D39V, partner 0.0155 µg/mL	≥ 1	≥ 1	0.898
S. pneumoniae D39V, partner 0.028 µg/mL	0.927	0.896	0.865
S. pneumoniae D39V, partner 0.031 µg/mL	0.964	≥ 1	0.888

CC(=O)Oc1ccccc1C(=O)O [Acetylsalicylic acid] + O=C(O[C@@H]1Cc2c(O)cc(O)cc2O[C@@H]1c1cc(O)c(O)c(O)c1)c1cc(O)c(O)c(O)c1 [EGCG]
fitness
Settings	partner 12.5 µg/mL	partner 25 µg/mL	partner 50 µg/mL
S. aureus DSM 20231, first compound 250 µg/mL	0.764	0.774	0.766
S. aureus DSM 20231, first compound 500 µg/mL	0.735	0.767	0.72
S. aureus DSM 20231, first compound 1000 µg/mL	0.616	0.621	0.598
S. pneumoniae D39V, first compound 250 µg/mL	0.955	0.935	0.914
S. pneumoniae D39V, first compound 500 µg/mL	0.927	0.929	0.851
